# Test results taken from patent EP0435794A1, “Alkenyl- or heteroaryl thio, sulfone, sulfoxy herbicides” (RHONE-POULENC AGROCHIMIE, priority 1989, dated 1991).
# Columns and labels:
# Assay type in all cases: in vivo
# [1] = test system: Setaria faberii; assay: Exemple C: selectivity test in field crops, pre-emergence (weed); conditions: 24 days
# Source text: (§1) Exemple C - Essai de sélectivité en grandes cultures avec application herbicide, en prélevée des espèces végétales
# (§2) Dans des pots de 7 X 7 X 8 cm remplis de terre agricole légère, on sème un nombre de graines déterminé en fonction de l'espèce végétale et de la grosseur de la graine.
# (§3) On recouvre ensuite les graines d'une couche de terre d'environ 3 mm d'épaisseur.
# (§4) Les pots sont alors traités par pulvérisation de bouillie en quantité correspondant à une dose volumique d'application de 500 l/ha et contenant la matière active à la concentration désirée.
# (§5) La bouillie a été préparée de la même manière qu'à l'exemple A.
# (§6) Les pots traités sont ensuite placés dans des bacs destinés à recevoir l'eau d'arrosage, en subirrigation, et maintenus pendant 24 jours à température ambiante sous 70 % d'humidité relative.
# (§7) Le relevé est effectué de la façon suivante:
# (§8) Au bout de 24 jours, on mesure un pourcentage (D) de destruction du nombre de pieds dans le pot traité par rapport au nombre de plantes dans les pots non traités (témoin). On mesure, sur les plantes traitées restantes, le pourcentage de réduction de taille (RT) par rapport aux plantes témoins.
# (§9) Le pourcentage de volume foliaire non détruit par le produit est donc donné par la formule: ([100-D] X [100-RT])/(100)= A [formula]
# (§10) Cette valeur A est transformée en notation de 0 à 5 selon l'échelle suivante:
# (§11) Ainsi, un produit est jugé comme sélectif vis à vis de la culture lorsque la valeur A notée est de 0 ou 1.
# (§12) Les résultats obtenus sont présentés dans l'exemple C pour des doses d'application de 500, 1000, 2000 ou 4000 g de matière active par hectare selon les produits.
# (§13) Les espèces végétales utilisées dans cet exemple sont: […]
# [2] = test system: Panicum milicaeum; assay: as above; conditions: 24 days
# Source text: as §1, §2, §3, §4, §5, §6, §7, §8, §9, §10, §11, §12, §13
# [3] = test system: Alopecurus myosuroides; assay: as above; conditions: 24 days
# Source text: as §1, §2, §3, §4, §5, §6, §7, §8, §9, §10, §11, §12, §13
# [4] = test system: Digitaria sanguinalis; assay: as above; conditions: 24 days
# Source text: as §1, §2, §3, §4, §5, §6, §7, §8, §9, §10, §11, §12, §13
# [5] = test system: Echinochloa crus-galli; assay: as above; conditions: 24 days
# Source text: as §1, §2, §3, §4, §5, §6, §7, §8, §9, §10, §11, §12, §13
# [6] = test system: Sorghum halepense; assay: as above; conditions: 24 days
# Source text: as §1, §2, §3, §4, §5, §6, §7, §8, §9, §10, §11, §12, §13
# [7] = test system: blé; assay: Exemple C: selectivity test in field crops, pre-emergence (crop); conditions: 24 days, 0 or 1 = selective; further: ranges in brackets are in %
# Source text: as §1, §2, §3, §4, §5, §6, §7, §8, §9, §10, §11, §12
# (§14) Les espèces végétales utilisées dans cet exemple sont:
# (§15) Comme on peut le voir sur le tableau de résultats de cet exemple C, de nombreux produits présentent une excellente activité antigraminée de prélevée tout en montrant une excellente sélectivité pour 1 ou 2 ou 3 ou 4 des 4 cultures testées = blé, maïs, riz, soja.
# [8] = test system: maïs; assay: as above; conditions: 24 days, 0 or 1 = selective; further: ranges in brackets are in %
# Source text: as §1, §2, §3, §4, §5, §6, §7, §8, §9, §10, §11, §12, §14, §15
# [9] = test system: riz; assay: as above; conditions: 24 days, 0 or 1 = selective; further: ranges in brackets are in %
# Source text: as §1, §2, §3, §4, §5, §6, §7, §8, §9, §10, §11, §12, §14, §15
# [10] = test system: soja; assay: as above; conditions: 24 days, 0 or 1 = selective; further: ranges in brackets are in %
# Source text: as §1, §2, §3, §4, §5, §6, §7, §8, §9, §10, §11, §12, §14, §15
Compound,Notation de l'activité herbicide SET ([1]; dose 0.5 Kg m.a./ha),Notation de l'activité herbicide PAN ([2]; dose 0.5 Kg m.a./ha),Notation de l'activité herbicide ALO ([3]; dose 0.5 Kg m.a./ha),Notation de l'activité herbicide DIG ([4]; dose 0.5 Kg m.a./ha),Notation de l'activité herbicide ECh ([5]; dose 0.5 Kg m.a./ha),Notation de l'activité herbicide SOR ([6]; dose 0.5 Kg m.a./ha),Notation de l'activité herbicide TRZ ([7]; dose 0.5 Kg m.a./ha),Notation de l'activité herbicide ZEA ([8]; dose 0.5 Kg m.a./ha),Notation de l'activité herbicide ORY ([9]; dose 0.5 Kg m.a./ha),Notation de l'activité herbicide GLY ([10]; dose 0.5 Kg m.a./ha),Notation de l'activité herbicide SET ([1]; dose 1 Kg m.a./ha),Notation de l'activité herbicide PAN ([2]; dose 1 Kg m.a./ha),Notation de l'activité herbicide ALO ([3]; dose 1 Kg m.a./ha),Notation de l'activité herbicide DIG ([4]; dose 1 Kg m.a./ha),Notation de l'activité herbicide ECh ([5]; dose 1 Kg m.a./ha),Notation de l'activité herbicide SOR ([6]; dose 1 Kg m.a./ha),Notation de l'activité herbicide TRZ ([7]; dose 1 Kg m.a./ha),Notation de l'activité herbicide ZEA ([8]; dose 1 Kg m.a./ha),Notation de l'activité herbicide ORY ([9]; dose 1 Kg m.a./ha),Notation de l'activité herbicide GLY ([10]; dose 1 Kg m.a./ha)
O=S(=O)(CC(O)(CBr)c1cccc(F)c1)c1sccc1Cl (stereo not shown) [compound 67],4 (10 à 30),4 (10 à 30),2 (50 à 70),5 (O à 10),4 (10 à 30),1 (70 à 90),0 (90 à 100),1 (70 à 90),0 (90 à 100),0 (90 à 100),,,,,,,,,,
C=C(CS(=O)(=O)c1cc(C)sc1C)c1ccccc1 [compound 51],,,,,,,,,,,4 (10 à 30),4 (10 à 30),4 (10 à 30),5 (O à 10),4 (10 à 30),4 (10 à 30),0 (90 à 100),0 (90 à 100),0 (90 à 100),0 (90 à 100)
O=S(=O)(CC(O)(CBr)c1cc(Cl)cc(Cl)c1)c1cccs1 (stereo not shown) [compound 62],,,,,,,,,,,4 (10 à 30),4 (10 à 30),,5 (O à 10),5 (O à 10),2 (50 à 70),2 (50 à 70),1 (70 à 90),2 (50 à 70),0 (90 à 100)
Cc1ccsc1S(=O)(=O)CC(O)(CBr)c1ccccc1 (stereo not shown) [compound 63],,,,,,,,,,,5 (O à 10),4 (10 à 30),3 (30 à 50),5 (O à 10),,5 (O à 10),3 (30 à 50),2 (50 à 70),4 (10 à 30),0 (90 à 100)
O=S(=O)(CC(O)(CBr)c1cccc(Cl)c1)c1ccsc1 (stereo not shown) [compound 64],,,,,,,,,,,5 (O à 10),5 (O à 10),3 (30 à 50),5 (O à 10),5 (O à 10),2 (50 à 70),0 (90 à 100),2 (50 à 70),2 (50 à 70),0 (90 à 100)
C=C(CS(=O)(=O)c1sc(C)nc1C)c1cc(C)cc(C)c1 [compound 46],,,,,,,,,,,1 (70 à 90),5 (O à 10),5 (O à 10),5 (O à 10),4 (10 à 30),1 (70 à 90),0 (90 à 100),0 (90 à 100),0 (90 à 100),0 (90 à 100)
"CC(=O)OC(CBr)(CS(=O)(=O)c1sccc1Br)c1ccccc1 (stereo not shown) [compound 60, 2-acétoxy 3-bromo 1-[(3-bromo 2-thiényl)sulfonyl] 2-phényl propane]",4 (10 à 30),3 (30 à 50),2 (50 à 70),,5 (O à 10),5 (O à 10),0 (90 à 100),0 (90 à 100),0 (90 à 100),0 (90 à 100),,,,,,,,,,
